Experimental data as given in ChEMBL document CHEMBL1201862, “PubChem BioAssay data set” (2004).
Activity calls are given as the source filed them.

Tests used:
[1] = cells
[2] = biological target: G-protein coupled receptor 55 (Homo sapiens, UniProt Q9Y2T6); assay: selective activators of receptor GPR55 – imaging, U2OS cells, beta-arrestin-GFP redistribution, primary screen (AID 1961); format: functional
[3] = biological target: Glyceraldehyde-3-phosphate dehydrogenase (Homo sapiens, UniProt P04406)
[4] = biological target: Alkaline phosphatase, placental type (Homo sapiens, UniProt P05187); assay: human placental alkaline phosphatase inhibition – biochemical, luminescence, confirmation (AID 1512); format: functional
[5] = biological target: T1, Alkaline phosphatase, tissue-nonspecific isozyme (Homo sapiens, UniProt P05186); assay: potency against alkaline phosphatase TNAP – biochemical, luminescent, dose response, SAR follow-up (AID 1056)
T1 sequence (P05186 whole entry): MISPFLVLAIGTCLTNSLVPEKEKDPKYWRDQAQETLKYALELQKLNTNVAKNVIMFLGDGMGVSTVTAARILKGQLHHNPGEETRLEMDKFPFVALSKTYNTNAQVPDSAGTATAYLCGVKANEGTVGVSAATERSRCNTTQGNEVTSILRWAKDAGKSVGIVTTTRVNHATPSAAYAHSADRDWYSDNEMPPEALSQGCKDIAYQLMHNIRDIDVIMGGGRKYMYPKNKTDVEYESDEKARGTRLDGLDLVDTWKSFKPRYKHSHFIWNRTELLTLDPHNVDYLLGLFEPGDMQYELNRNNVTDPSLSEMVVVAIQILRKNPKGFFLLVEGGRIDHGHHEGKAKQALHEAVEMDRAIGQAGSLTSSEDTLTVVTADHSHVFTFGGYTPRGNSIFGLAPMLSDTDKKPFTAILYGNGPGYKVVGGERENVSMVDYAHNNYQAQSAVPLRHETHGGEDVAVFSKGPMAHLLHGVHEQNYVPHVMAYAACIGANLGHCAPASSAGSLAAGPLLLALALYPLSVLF

[6] = Luminescence Cell-Based Dose Confirmation HTS to Identify Activators of 5'UTR Stem-Loop Driven Alpha-Synuclein mRNA Translation in H4 Neuroglioblastoma Cells. [Related pubchem assays: 1829 (Project Summary), 1814 (Primary HTS)]; format: functional
[7] = Luminescence Cell-Based Dose Response HTS to Identify Activators of Luciferase Translation or Activity in H4 […] Cells. [Related pubchem assays: 1829 (Project Summary), 1814 (Primary HTS)]; format: functional
[8] = system: H4; assay: Luminescence Cell-Based Dose Response HTS to Identify Activators of 5'UTR Stem-Loop Driven Prion Protein mRNA Translation in H4 Neuroglioblastoma Cells. [Related pubchem assays: 1829 (Project Summary), 1814 (Primary HTS)]; format: functional; conditions: Homo sapiens
[9] = biological target: Intestinal-type alkaline phosphatase (Homo sapiens, UniProt P09923); assay: human intestinal alkaline phosphatase activators, dose response, biochemical, luminescence, uHTS hits (AID 463120); format: functional
[10] = biological target: T2, CAAX prenyl protease 2 (Saccharomyces cerevisiae S288c, UniProt Q03530); format: biochemical
T2 sequence (Q03530 whole entry): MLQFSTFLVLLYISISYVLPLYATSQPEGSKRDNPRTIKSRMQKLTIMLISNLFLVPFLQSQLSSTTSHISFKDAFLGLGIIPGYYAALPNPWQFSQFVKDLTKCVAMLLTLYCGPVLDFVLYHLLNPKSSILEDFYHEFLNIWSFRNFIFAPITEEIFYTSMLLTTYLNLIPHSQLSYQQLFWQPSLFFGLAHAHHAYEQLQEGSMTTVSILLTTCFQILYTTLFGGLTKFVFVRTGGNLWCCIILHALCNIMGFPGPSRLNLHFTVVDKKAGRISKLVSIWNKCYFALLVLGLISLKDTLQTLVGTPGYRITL

[11] = biological target: E3 ubiquitin-protein ligase XIAP (Homo sapiens, UniProt P98170); assay: Counter Screen using XIAP-Bir3 for Chemical Antagonists of Bir1/2 domains of IAP-family anti-apoptotic proteins. [Related pubchem assays (depositor defined):AID1018, AID1449, AID1514, AID1638, AID1749, AID1750, AID488957, AID488963]
[12] = biological target: T3, Polyadenylate-binding protein 1 (Homo sapiens, UniProt P11940); assay: MLLE binding blockers, Cy5 peptide tracer – biochemical, fluorescence polarization, Cy5-PAM2 peptide, secondary, miRNA deadenylation inhibitor project, dose response (AID 602260); format: functional; conditions: read-out: IC50_Mean
[13] = biological target: T3, Polyadenylate-binding protein 1; assay: MLLE domain peptide-binding blockers, IC50 – biochemical, fluorescence polarization, FITC-PAM2 peptide, dose response (AID 602259); format: functional; conditions: read-out: IC50_Mean
[14] = biological target: DNA dC->dU-editing enzyme APOBEC-3A (Homo sapiens, UniProt P31941); assay: A3A deaminase inhibition for selectivity – biochemical, dose response (AID 504722); format: functional
[15] = biological target: DNA dC->dU-editing enzyme APOBEC-3G (Homo sapiens, UniProt Q9HC16); assay: Dose Response confirmation of small molecule APOBEC3G DNA Deaminase Inhibitors via a fluorescence-based single-stranded DNA deaminase assay. [Related pubchem assays (depositor defined):AID493012, AID493028]; format: functional
[16] = biological target: Estrogen receptor beta (Homo sapiens, UniProt Q92731); assay: blockers of SRC-3 recruitment to ERβ – biochemical, ELISA, streptavidin-HRP readout, orthogonal assay, confirmation (AID 1060)
[17] = biological target: Induced myeloid leukemia cell differentiation protein Mcl-1 (Homo sapiens, UniProt Q07820); format: functional
[18] = biological target: Eukaryotic translation initiation factor 4E (Mus musculus, UniProt P63073); assay: blockers of eIF4G binding by eIF4E – biochemical, TR-FRET, dose response (AID 855); format: functional;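 note: potency for disrupting eIF4E binding to eIF4GI seen as loss of FRET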
[19] = microbe, parasite or virus in culture; format: functional; conditions: Mycobacterium tuberculosis
[20] = THP-1 cell cytotoxicity, dose response, cytotoxicity control for non-replicating M. tuberculosis project (AID 489025); format: functional
[21] = Vero E6 cell cytotoxicity, dose response, cytotoxicity control for non-replicating M. tuberculosis project, secondary assay (AID 492998); format: functional, VeroE6; conditions: Vero C1008
[22] = cells; format: functional
[23] = biological target: T4, Bcl-2-related protein A1 (Mus musculus, UniProt Q07440); format: functional;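 note: confirmatory dose–response counterscreen on Bfl-1, used to check hits from a UBC13 polyubiquitin inhibitor campaign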
T4 sequence (Q07440 whole entry): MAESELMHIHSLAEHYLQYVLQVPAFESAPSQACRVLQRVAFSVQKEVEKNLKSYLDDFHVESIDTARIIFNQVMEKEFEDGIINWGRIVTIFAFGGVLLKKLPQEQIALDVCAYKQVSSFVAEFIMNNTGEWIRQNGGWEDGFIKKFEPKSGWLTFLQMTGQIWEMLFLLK

[24] = biological target: T5, Ubiquitin-conjugating enzyme E2 N (Homo sapiens, UniProt P61088); format: functional
T5 sequence (P61088 whole entry): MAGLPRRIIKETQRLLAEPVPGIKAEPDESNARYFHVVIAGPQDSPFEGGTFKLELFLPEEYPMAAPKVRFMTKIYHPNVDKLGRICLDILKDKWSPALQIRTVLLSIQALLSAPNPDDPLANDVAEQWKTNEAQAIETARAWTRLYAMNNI

[25] = biological target: T5, Ubiquitin-conjugating enzyme E2 N; format: functional; remark: listed apart in the source
[26] = biological target: T6, Sphingosine 1-phosphate receptor 4 (Homo sapiens, UniProt O95977); assay: Late-stage fluorescence dose response cell-based assay to identify agonists of the Sphingosine 1-Phosphate Receptor 4 (S1P4): purchased compounds EC50. [Related pubchem assays (depositor defined):AID1509, AID1523, AID1563, AID1686, AID1701, AID1801]; format: functional
T6 sequence (O95977 whole entry): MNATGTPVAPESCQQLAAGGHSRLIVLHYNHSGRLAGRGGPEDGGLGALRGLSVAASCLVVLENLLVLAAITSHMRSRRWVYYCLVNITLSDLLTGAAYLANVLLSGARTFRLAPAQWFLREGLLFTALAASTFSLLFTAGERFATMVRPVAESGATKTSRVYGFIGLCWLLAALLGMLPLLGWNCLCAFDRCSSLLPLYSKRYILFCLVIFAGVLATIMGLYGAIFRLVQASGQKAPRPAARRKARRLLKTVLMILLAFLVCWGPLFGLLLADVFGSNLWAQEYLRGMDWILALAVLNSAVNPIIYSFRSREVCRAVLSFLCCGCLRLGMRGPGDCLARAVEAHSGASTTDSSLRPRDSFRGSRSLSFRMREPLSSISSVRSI

[27] = biological target: T7, Hexokinase (Trypanosoma brucei, UniProt Q38C41); assay: Confirmation assay for inhibitors of Trypanosoma brucei hexokinase 1-Analogue-first series. [Related pubchem assays (depositor defined):AID1430, AID1632, AID2516, AID2560, AID2579, AID2600, AID449725, AID492951]; format: functional
T7 sequence (Q38C41 whole entry): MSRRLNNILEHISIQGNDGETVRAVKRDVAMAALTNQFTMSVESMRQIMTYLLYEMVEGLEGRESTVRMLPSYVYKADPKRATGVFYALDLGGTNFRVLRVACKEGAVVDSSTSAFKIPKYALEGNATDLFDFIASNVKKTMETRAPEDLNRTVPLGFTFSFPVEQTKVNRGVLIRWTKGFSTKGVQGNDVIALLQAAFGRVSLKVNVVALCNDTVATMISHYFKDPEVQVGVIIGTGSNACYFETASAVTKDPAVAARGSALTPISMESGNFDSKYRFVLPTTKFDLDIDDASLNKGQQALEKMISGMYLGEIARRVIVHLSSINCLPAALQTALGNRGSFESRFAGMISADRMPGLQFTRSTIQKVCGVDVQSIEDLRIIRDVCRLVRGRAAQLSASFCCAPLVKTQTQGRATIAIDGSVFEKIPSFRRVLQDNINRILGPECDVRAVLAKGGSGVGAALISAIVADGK

Chain of DNA dC->dU-editing enzyme APOBEC-3G (Q9HC16 whole entry): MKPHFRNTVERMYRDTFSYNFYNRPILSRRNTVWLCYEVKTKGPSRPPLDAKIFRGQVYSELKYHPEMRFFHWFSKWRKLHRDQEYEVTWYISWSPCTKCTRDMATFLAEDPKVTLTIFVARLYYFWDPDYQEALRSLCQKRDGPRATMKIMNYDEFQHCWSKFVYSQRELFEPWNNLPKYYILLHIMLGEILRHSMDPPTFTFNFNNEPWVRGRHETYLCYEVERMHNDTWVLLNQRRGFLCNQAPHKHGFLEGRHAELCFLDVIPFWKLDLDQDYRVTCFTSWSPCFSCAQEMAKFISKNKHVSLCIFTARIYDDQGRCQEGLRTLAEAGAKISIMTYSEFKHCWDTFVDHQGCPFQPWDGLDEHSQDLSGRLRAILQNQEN
Chain of Alkaline phosphatase, placental type (P05187 whole entry): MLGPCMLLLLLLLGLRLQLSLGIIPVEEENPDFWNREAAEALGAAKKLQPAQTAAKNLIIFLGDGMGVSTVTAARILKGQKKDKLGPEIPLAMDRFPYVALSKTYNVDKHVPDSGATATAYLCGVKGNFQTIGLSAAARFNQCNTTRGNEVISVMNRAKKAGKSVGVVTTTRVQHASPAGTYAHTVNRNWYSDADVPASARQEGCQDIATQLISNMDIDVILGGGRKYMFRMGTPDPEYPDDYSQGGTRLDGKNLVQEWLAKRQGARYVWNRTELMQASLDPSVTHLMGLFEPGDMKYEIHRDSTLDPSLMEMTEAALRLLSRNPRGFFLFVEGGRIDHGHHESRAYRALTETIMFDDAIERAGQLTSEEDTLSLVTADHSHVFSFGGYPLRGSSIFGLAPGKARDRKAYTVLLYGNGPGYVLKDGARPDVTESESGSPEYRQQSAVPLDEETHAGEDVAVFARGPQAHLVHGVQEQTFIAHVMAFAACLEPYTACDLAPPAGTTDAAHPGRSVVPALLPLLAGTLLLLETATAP
Chain of DNA dC->dU-editing enzyme APOBEC-3A (P31941 whole entry): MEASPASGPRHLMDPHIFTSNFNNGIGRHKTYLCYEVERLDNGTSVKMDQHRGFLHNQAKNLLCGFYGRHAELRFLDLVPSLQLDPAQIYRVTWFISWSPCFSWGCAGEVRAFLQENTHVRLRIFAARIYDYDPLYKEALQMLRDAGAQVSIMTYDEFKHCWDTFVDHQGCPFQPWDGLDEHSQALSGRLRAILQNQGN
Chain of Glyceraldehyde-3-phosphate dehydrogenase (P04406 whole entry): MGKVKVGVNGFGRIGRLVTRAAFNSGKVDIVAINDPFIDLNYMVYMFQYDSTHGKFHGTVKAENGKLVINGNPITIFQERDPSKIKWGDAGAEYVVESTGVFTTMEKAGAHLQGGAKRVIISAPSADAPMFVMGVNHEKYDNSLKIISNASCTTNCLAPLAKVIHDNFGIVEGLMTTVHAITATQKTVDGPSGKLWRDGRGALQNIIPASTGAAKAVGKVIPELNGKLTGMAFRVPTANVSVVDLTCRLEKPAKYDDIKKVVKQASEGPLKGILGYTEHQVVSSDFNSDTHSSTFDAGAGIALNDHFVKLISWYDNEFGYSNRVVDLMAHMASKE
T3 sequence (P11940 whole entry, the tested form may be a part): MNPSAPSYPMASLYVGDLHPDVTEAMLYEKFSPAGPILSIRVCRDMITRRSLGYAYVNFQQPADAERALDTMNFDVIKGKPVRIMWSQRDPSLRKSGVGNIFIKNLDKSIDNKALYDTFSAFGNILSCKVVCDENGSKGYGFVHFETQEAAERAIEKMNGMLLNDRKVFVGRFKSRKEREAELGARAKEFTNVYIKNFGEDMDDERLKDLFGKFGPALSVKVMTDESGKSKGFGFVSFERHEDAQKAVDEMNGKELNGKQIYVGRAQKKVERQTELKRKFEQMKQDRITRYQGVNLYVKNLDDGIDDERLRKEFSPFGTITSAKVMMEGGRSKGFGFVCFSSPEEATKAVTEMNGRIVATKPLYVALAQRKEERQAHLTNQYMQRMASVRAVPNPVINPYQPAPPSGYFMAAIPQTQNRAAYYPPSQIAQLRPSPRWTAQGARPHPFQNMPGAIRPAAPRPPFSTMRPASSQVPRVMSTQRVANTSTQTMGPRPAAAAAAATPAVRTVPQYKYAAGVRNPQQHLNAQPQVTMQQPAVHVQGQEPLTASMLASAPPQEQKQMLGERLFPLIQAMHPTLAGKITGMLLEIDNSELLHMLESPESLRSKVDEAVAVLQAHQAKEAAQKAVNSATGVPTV
Chain of Eukaryotic translation initiation factor 4E (P63073 whole entry): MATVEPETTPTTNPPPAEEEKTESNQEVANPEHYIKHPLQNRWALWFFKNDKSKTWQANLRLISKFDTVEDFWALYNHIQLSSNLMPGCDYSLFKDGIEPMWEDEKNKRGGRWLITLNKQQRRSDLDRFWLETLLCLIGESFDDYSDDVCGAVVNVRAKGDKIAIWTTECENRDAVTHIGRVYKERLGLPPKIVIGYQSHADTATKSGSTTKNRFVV
Chain of Induced myeloid leukemia cell differentiation protein Mcl-1 (Q07820 whole entry): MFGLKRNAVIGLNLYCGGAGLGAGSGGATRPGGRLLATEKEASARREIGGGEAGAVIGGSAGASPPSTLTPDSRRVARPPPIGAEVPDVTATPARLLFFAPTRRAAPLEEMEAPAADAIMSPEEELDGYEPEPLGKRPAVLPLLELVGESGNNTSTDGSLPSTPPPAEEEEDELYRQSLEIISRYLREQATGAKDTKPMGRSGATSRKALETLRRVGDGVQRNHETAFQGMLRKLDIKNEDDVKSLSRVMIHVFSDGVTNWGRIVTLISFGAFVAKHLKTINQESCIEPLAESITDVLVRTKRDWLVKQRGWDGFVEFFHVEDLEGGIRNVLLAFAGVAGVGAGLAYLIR
Chain of G-protein coupled receptor 55 (Q9Y2T6 whole entry): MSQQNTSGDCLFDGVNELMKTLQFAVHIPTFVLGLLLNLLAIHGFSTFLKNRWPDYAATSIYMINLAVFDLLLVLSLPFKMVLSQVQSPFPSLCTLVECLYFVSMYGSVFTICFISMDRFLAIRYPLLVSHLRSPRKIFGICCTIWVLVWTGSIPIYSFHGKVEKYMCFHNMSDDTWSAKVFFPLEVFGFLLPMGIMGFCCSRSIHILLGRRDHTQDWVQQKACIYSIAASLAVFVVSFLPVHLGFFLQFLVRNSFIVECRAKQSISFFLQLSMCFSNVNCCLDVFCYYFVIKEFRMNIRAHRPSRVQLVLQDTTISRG
Chain of Intestinal-type alkaline phosphatase (P09923 whole entry): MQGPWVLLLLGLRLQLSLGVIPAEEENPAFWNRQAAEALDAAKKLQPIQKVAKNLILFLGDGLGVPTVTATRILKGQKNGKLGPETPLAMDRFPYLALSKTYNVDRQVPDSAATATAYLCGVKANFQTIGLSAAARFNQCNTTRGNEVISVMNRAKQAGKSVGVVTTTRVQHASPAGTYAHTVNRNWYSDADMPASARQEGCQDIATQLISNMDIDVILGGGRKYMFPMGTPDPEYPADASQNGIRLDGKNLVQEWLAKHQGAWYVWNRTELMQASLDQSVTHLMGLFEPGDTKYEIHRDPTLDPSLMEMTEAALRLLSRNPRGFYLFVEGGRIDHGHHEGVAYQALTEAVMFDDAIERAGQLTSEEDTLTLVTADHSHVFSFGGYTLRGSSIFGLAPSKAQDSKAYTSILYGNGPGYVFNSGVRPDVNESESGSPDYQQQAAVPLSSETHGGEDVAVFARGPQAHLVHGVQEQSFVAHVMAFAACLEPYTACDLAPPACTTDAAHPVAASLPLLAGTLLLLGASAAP
Chain of E3 ubiquitin-protein ligase XIAP (P98170 whole entry): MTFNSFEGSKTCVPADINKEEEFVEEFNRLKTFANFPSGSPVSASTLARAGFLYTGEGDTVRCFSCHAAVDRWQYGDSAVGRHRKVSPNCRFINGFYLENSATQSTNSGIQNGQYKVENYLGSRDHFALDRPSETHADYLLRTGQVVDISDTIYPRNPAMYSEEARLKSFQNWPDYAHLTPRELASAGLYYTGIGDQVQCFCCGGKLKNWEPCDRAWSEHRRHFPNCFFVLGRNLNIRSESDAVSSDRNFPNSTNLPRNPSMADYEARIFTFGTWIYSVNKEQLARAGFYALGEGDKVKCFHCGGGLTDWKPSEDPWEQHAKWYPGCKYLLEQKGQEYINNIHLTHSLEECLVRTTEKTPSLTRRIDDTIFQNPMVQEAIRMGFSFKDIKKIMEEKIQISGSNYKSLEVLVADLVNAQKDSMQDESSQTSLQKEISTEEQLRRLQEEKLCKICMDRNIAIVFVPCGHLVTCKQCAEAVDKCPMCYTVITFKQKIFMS
Chain of Estrogen receptor beta (Q92731 whole entry): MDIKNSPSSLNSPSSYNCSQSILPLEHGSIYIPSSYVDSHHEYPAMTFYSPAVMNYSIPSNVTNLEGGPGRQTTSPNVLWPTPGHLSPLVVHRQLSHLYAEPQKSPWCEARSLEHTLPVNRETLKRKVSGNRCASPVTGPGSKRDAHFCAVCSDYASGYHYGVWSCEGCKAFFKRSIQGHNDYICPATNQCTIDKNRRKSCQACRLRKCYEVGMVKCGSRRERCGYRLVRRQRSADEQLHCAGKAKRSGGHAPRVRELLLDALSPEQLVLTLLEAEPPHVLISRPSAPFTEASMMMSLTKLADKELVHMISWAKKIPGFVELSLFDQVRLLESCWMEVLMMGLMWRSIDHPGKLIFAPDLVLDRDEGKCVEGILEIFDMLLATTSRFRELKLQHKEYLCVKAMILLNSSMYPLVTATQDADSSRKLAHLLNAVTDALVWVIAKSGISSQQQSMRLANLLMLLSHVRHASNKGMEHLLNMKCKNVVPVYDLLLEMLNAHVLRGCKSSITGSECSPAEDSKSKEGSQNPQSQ

## CC(=O)N1CCN(C2=NC(=O)/C(=C/c3ccc(OS(=O)(=O)c4ccccc4)cc3)S2)CC1
[1]
  IC50: 37.9 µM (active)

## Nc1ccc(Oc2ccc3nc(-c4ccccc4)c(-c4ccccc4)nc3c2)cc1
[2]
  EC50: 1.91 µM (active)

## Cn1ncc2c1ncn1c(-c3ccccc3)nnc21
[3]
  IC50: > 100 µM (not active)
[4]
  IC50: > 100 µM (inactive)
[5]
  IC50: > 100 µM (inactive)

## Cc1ccc(S(=O)(=O)Nc2nc3ccccc3nc2NCc2ccco2)cc1
[6]
  EC50: 8.02 µM (active)
[7]
  EC50: 10.8 µM (active)
[8]
  EC50: 7.32 µM (active)
[9]
  EC50: > 100 µM (inactive)

## COc1ccc(-c2[nH]nc(-c3ccccc3)c2-c2nc3ccccc3[nH]2)cc1
[3]
  IC50: 81.2 µM (active)
[4]
  IC50: > 100 µM (inactive)
[5]
  IC50: > 100 µM (inactive)

## CCOC(=O)C1CCCN(C(=O)CCn2nnnc2CN2CCOCC2)C1 (stereo not drawn)
[10]
  AC50: 27.9 µM (active)

## COc1cc(NS(=O)(=O)c2ccc(NC(=S)NC(=O)/C=C/c3ccc(F)cc3)cc2)ncn1
[11]
  IC50: > 20 µM (inactive)
[12]
  IC50: > 66 µM (inactive)
[13]
  IC50: > 66 µM (inactive)

## Cc1nc(-c2ccccc2)sc1-c1n[nH]c(=S)n1C
[14]
  IC50: > 100 µM (inactive)
[15]
  IC50: 4.9 µM (active)

## Nc1c(C(=O)NCc2ccco2)sc2nc3c(cc12)C(=O)CCC3
[16]
  IC50: 6.25 µM (not active)
[17]
  IC50: 3.38 µM (active)
[18]
  IC50: > 64 µM (inactive)

## CCCCNC(=O)CC1N=C2c3ccccc3N=C(SCC(=O)Nc3ccc(OC)cc3)N2C1=O (stereo not drawn)
[1]
  IC50: 37 µM (active)

## CC(C)CSc1nnc(S)s1
[14]
  IC50: > 100 µM (inactive)
[15]
  IC50: 3.32 µM (active)

## O=c1c2ccccc2cnn1Cc1nnc(S)n1-c1ccc(Cl)cc1
[14]
  IC50: > 100 µM (inactive)
[15]
  IC50: 5.01 µM (active)

## COc1ccccc1-c1nnc(SCC(=O)Nc2ccccc2[N+](=O)[O-])[nH]1
[3]
  IC50: > 100 µM (not active)
[4]
  IC50: > 100 µM (inactive)
[5]
  IC50: 13.3 µM (active)

## COc1ccccc1CC(=O)Nc1ccc2c(c1)C(=O)NC2=O
[2]
  EC50: 14.9 µM (inactive)

## CNC(C)C#Cc1ccc2oc3cc(C)c(C)cc3c(=O)c2c1 (stereo not drawn)
[19]
  CC50: 29 µM (active)
[20]
  CC50: 22.2 µM (active)
[21]
  CC50: > 20 µM (active)
[22]
  IC50: 11.8 µM (active)

## O=C1C2C3C=CC(C3)C2C(=O)N1CCCCN1C(=O)C2C3C=CC(C3)C2C1=O (stereo not drawn)
[18]
  IC50: > 64 µM (inactive)

## O=C(NNC(=O)c1nn(-c2ccc(F)cc2)ccc1=O)c1ccc(Cl)cc1
[23]
  IC50: > 20 µM (inactive)
[24]
  IC50: 18.9 µM (active)
[25]
  IC50: 19.8 µM (active)

## Cc1ccc(OCc2cccc(COc3ccc(C)nc3[N+](=O)[O-])c2)c([N+](=O)[O-])n1
[26]
  EC50: > 50 µM (inactive)

## COc1ccc(C(=O)NC(CC(=O)O)c2ccc(Cl)cc2)cc1 (stereo not drawn)
[27]
  IC50: > 25 µM (inactive)

## Cc1ccc(OCC(=O)N(C)CCOc2ccc(Cl)cc2)c([N+](=O)[O-])n1
[26]
  EC50: > 50 µM (inactive)

## Cc1ccc(OCc2c(Cl)cccc2Cl)c([N+](=O)[O-])n1
[26]
  EC50: > 50 µM (inactive)

## COc1ccc(C(=O)Nc2cc(C(=O)O)ccc2Cl)cc1
[27]
  IC50: > 25 µM (inactive)

## C#CCOCCOCCOCCNc1nc(N2CCN(C(=O)[C@H](CCCN=C(N)N)n3cc(C(N)[C@@H](C)CC)nn3)CC2)nc(N2CCN(C(=O)[C@H](CCCCN)n3cc([C@@H](N)[C@H](C)CC)nn3)CC2)n1 (stereo partly drawn)
[23]
  IC50: > 20 µM (inactive)
[24]
  IC50: 15.2 µM (active)
[25]
  IC50: 18.4 µM (active)

## Cc1[nH]c2ccccc2c1/C=N/Nc1ccc([N+](=O)[O-])cc1
[17]
  IC50: < 0.4 µM (active)
[1]
  IC50: 27 µM (active)
